The test system of test [1] is Fasciola hepatica eggs (ABZ-susceptible isolate). Briefly: Egg hatch test (EHT), ABZ-susceptible isolates. The test is classed as cell-based. The settings on record: mean ± SEM; for % Ovicidal activity: ABZ-susceptible isolate. As for the experimental part:
Eggs were recovered from gallbladders of cattle naturally infected with F. hepatica at the municipal slaughterhouse of León (Spain). For this, the bile of the gallbladders was filtered through sieves of different diameter size pores (500, 150, and 20 µm) using pressurized tap water. Eggs retained on the 20 µm pore size sieve were collected and stored at 4 °C in darkness until required within a maximum period of 2 months.
The susceptibility of the isolates to ABZ was confirmed by the egg hatch test (EHT) using an ABZ discriminant dose (DD) of 0.5 µM [23]. The technique is described in more detail below.
The in vitro anthelmintic activity of a total of 70 BZDs was initially tested on F. hepatica eggs recovered from gallbladders of cattle naturally infected with ABZ-susceptible isolates. The first screening was performed using a fixed concentration of 50 µM. […] Therefore, only BZDs with ovicidal activities over 80% progressed to the next assays at 10 µM. […] At this last concentration, the ovicidal effect of ABZ, ABZSO, and OXF was also evaluated.
(§1) The in vitro EHT described in the current study was based on previous studies. Briefly, 100–120 eggs were incubated in 990 µL of water and 10 μL of each working solution at 25 °C in the dark for a period of 12 h. After incubation, eggs were gently washed with tap water three times to facilitate compound removal and kept in darkness at 25 °C for 14 days. After this period, eggs were exposed to light for 2 h to stimulate the hatching of eggs. Then, hatched and unhatched eggs were evaluated and counted using an optical microscope. The term “hatched eggs” includes both hatched and embryonated eggs. Negative control eggs were incubated with 10 μL of DMSO in 990 μL of water, reaching a maximum DMSO concentration of 1% (v/v), while ABZ at 0.5 µM was used as positive control. Each compound at a specific concentration was tested in triplicate in the same EHT and repeated at least two different days.
With the aim to characterize the susceptibility of isolates from naturally infected cattle, the drug used in the EHT was ABZ, tested at a discriminant dose of 0.5 μM. Drug susceptibility is assumed when the ovicidal activity is over 70%, resistance when is lower than 40%, and a suspicion of resistance when activity is between these values at 0.5 μM.
(§2) The efficacy of each compound and drug was calculated as its ovicidal activity following the formula below: Ovicidal activity%=100×%eggs hatched in negative control-%egg hatched after drug incubation/%egg hatched in control.

In test [2] the test system is Fasciola hepatica eggs (ABZ-resistant isolate). Briefly: Egg hatch test (EHT), ABZ-resistant isolate. In kind it is cell-based.
Description: F. hepatica eggs were recovered after washing the gallbladder of three naturally infected sheep belonging to a flock suspected to be resistant to ABZ. From these eggs, metacercariae were produced at the Centro de Investigaciones de Mabegondo (AGACAL, Xunta de Galicia, Spain) following a previous protocol. These metacercariae were used to infect eight sheep with a dose of 200 metacercariae. The infection was confirmed individually 3 months after the infection by coprological analysis using a sedimentation technique. At that point, sheep were randomly located in two groups of four animals: one treated with a therapeutic dose of ABZ (7.5 mg/kg) and the other one only with water, as control group. To assess the efficacy of ABZ in this isolate, all sheep were humanely euthanized by an intravenous administration of a lethal dose of sodium pentobarbital (Dolethal®, Vetoquinol, Spain) 2 weeks later for fluke recovery and counting. Afterwards, the in vivo efficacy of ABZ was calculated as the percentage of adult worm reduction compared with the untreated control. Additionally, the number of eggs per gram of feces (EPG) was estimated on the treatment day (mentioned as day 0) and 14 days later to determine drug efficacy by means of the fecal egg count reduction test (FECRT).
During the necropsy, gallbladders from sheep belonging to the untreated group were taken to collect the eggs and carry out the in vitro EHT, while flukes collected from livers were used to conduct the adult viability test (AVT).
Those BZDs with an activity higher than 80% at a concentration of 10 µM were also screened on eggs and adults from the ABZ resistant isolate.
as §1, §2

The structures appear in SMILES notation. Values joined by “and” are separate entries in the source; they are usually repeats but may differ in a detail not shown here. Equal values may be shown once.

As for `COc1ccc(-c2nc3ccccc3[nH]2)cc1` [BZD01], the “% Ovicidal activity” value in test [1] (50 µM) is 20.07 ± 9.32%. Still for that read-out and setting: next, `Clc1ccc(-c2nc3ccccc3[nH]2)cc1` [BZD02]: 09.55 ± 5.68%; `Brc1ccc(-c2nc3ccccc3[nH]2)cc1` [BZD03]: 01.93 ± 1.11%.

Take `Cc1ccc2[nH]c(-c3ccc(Cl)cc3)nc2c1` [BZD05]: the “% Ovicidal activity” value in test [1] (10 µM) was “around 50%”; in test [1] (50 µM) it was 35.59 ± 9.00%.

On to `Cc1ccc(C)c(-c2nc3cc(C)ccc3[nH]2)c1` [BZD06], for which, in test [1] (50 µM), the “% Ovicidal activity” value is 02.26 ± 1.30% and 04.63 ± 2.27%. The same measure, in the same setting: next, `COc1ccc(-c2nc3cc(C)ccc3[nH]2)cc1[N+](=O)[O-]` [BZD07]: 07.13 ± 3.45%. On the same count and under the same terms, next, `O=[N+]([O-])c1ccc(-c2nc3cc(Cl)ccc3[nH]2)cc1` [BZD10]: 23.55 ± 8.06%; `Cc1ccc(C)c(-c2nc3cc(Cl)ccc3[nH]2)c1` [BZD11]: 03.28 ± 1.45%.

For `COc1ccc(-c2nc3cc(Cl)ccc3[nH]2)cc1[N+](=O)[O-]` [BZD12], the “% Ovicidal activity” value in test [1] (50 µM) is on record as 00.55 ± 9.45%. On the same count and under the same terms, next, `COc1ccc(-c2nc3cc(Cl)ccc3[nH]2)cc1N` [BZD13]: 04.40 ± 1.38%; `COc1ccc(-c2nc3cc([N+](=O)[O-])ccc3[nH]2)cc1` [BZD14]: 15.55 ± 7.35%. On the same count and under the same terms, next, `Cc1ccc(C)c(-c2nc3cc([N+](=O)[O-])ccc3[nH]2)c1` [BZD16]: 00.33 ± 0.33%; `COc1ccc(-c2nc3cc([N+](=O)[O-])ccc3[nH]2)cc1[N+](=O)[O-]` [BZD17]: 00.00 ± 0.00%.

`COc1ccc(-c2nc3cc(N)ccc3[nH]2)cc1` [BZD18]: the “% Ovicidal activity” value in test [1] (50 µM) was determined as 02.82 ± 1.42%. On the same count and under the same terms, next, `COc1ccc(-c2nc3cc(NC(=O)c4ccccn4)ccc3[nH]2)cc1` [BZD19]: 13.61 ± 3.64%. On to `COc1ccc(-c2nc3cc(OC)ccc3[nH]2)cc1` [BZD20], for which the “% Ovicidal activity” value in test [1] (10 µM) is recorded as 24.59 ± 05.71%. In the case of `COc1ccc2[nH]c(-c3ccc(Cl)cc3)nc2c1` [BZD21], the “% Ovicidal activity” value in test [1] (50 µM) is given as 06.88 ± 6.88%.

With `COc1ccc2nc(-c3ccc(Br)cc3)[nH]c2c1` [BZD22], the “% Ovicidal activity” value in test [1] (50 µM) is listed as 67.47 ± 5.64%.

`COc1ccc(-c2nc3cc(C)c(C)cc3[nH]2)cc1` [BZD23]: in test [1] (50 µM), the “% Ovicidal activity” value stood at 59.08 ± 3.79%. The same measure, in the same setting: next, `COc1ccc(-c2nc3cc(Cl)c(Cl)cc3[nH]2)cc1` [BZD24]: 16.09 ± 6.50%. On the same count and under the same terms, next, `Cc1ccc(S(=O)(=O)Nc2nc3cc(C)ccc3[nH]2)cc1` [BZD25]: 3.94 ± 1.37%; `Cc1ccc2[nH]c(NS(=O)(=O)c3ccc4ccccc4c3)nc2c1` [BZD26]: 2.23 ± 0.99%.

In the case of `COc1ccc(CNc2nc3cc(C)ccc3[nH]2)c(OC)c1OC` [BZD28], the “% Ovicidal activity” value in test [1] (50 µM) was found to be 01.02 ± 0.62%.

`Cc1ccc2[nH]c(NCc3ccc4ccccc4c3)nc2c1` [BZD29]: in test [1] (50 µM), the “% Ovicidal activity” value is 04.65 ± 1.98%. `COc1ccc(CNc2nc3cc(Cl)ccc3[nH]2)cc1` [BZD33]: the “% Ovicidal activity” value in test [1] (50 µM) came to 05.52 ± 2.49%.

As for `COc1cc(CNc2nc3cc(Cl)ccc3[nH]2)cc(OC)c1OC` [BZD34], in test [1] (50 µM), the “% Ovicidal activity” value was found to be 00.39 ± 0.38%. Still for that read-out and setting: next, `Clc1ccc2[nH]c(NCc3ccco3)nc2c1` [BZD35]: 37.65 ± 13.55%; `COc1ccc2[nH]c(NCc3ccccc3)nc2c1` [BZD36]: 70.94 ± 2.32%; `COc1ccc(CNc2nc3cc(OC)ccc3[nH]2)cc1` [BZD37]: 08.66 ± 1.86%. The same measure, in the same setting: next, `COc1ccc2[nH]c(NCc3cccs3)nc2c1` [BZD40]: 17.73 ± 5.12%; `COc1ccc(CNc2nc3cc(C)c(C)cc3[nH]2)cc1` [BZD41]: 05.76 ± 3.12%; `COc1cc(CNc2nc3cc(C)c(C)cc3[nH]2)cc(OC)c1OC` [BZD42]: 10.73 ± 3.26%. On the same count and under the same terms, next, `Clc1cc2nc(NCc3ccccc3)[nH]c2cc1Cl` [BZD43]: 55.36 ± 3.12%; `COc1cc(CNc2nc3cc(Cl)c(Cl)cc3[nH]2)cc(OC)c1OC` [BZD45]: 00.91 ± 0.61%. In the case of `COc1ccc(C(=O)Nc2nc3cc(C)ccc3[nH]2)cc1` [BZD48], the “% Ovicidal activity” value in test [1] (50 µM) was found to be 09.72 ± 2.50%. Take `Cc1ccc2[nH]c(NC(=O)c3cc([N+](=O)[O-])ccc3Cl)nc2c1` [BZD50]: the “% Ovicidal activity” value in test [1] (50 µM) was determined as 07.62 ± 2.71%. For the compound `COc1cc(OC)cc(C(=O)Nc2nc3cc(C)ccc3[nH]2)c1` [BZD51], in test [1] (50 µM), the “% Ovicidal activity” value is reported as 05.05 ± 2.51%. On the same count and under the same terms, next, `COc1cc(C(=O)Nc2nc3cc(C)ccc3[nH]2)cc(OC)c1OC` [BZD52]: 02.50 ± 1.26%. On the same count and under the same terms, next, `Cc1ccc2[nH]c(NC(=O)Cc3ccc4ccccc4c3)nc2c1` [BZD53]: 01.07 ± 0.62%. Same read-out and setting: next, `Cc1ccc2[nH]c(NC(=O)Cc3cccs3)nc2c1` [BZD54]: 07.20 ± 3.47%. For `COc1ccc(C(=O)Nc2nc3cc(Cl)ccc3[nH]2)cc1` [BZD57], the “% Ovicidal activity” value in test [1] (50 µM) was determined as 60.39 ± 10.70%. Still for that read-out and setting: next, `COc1ccc(C(=O)Nc2nc3cc(OC)ccc3[nH]2)cc1` [BZD60]: 01.08 ± 0.79%.

As for `Cc1cc2nc(NC(=O)c3cccc(Cl)c3)[nH]c2cc1C` [BZD65], in test [1] (50 µM), the “% Ovicidal activity” value is reported as 01.61 ± 0.82%.

Regarding `COc1ccc(C(=O)Nc2nc3cc(C)c(C)cc3[nH]2)cc1` [BZD66], the “% Ovicidal activity” value in test [1] (50 µM) is 00.26 ± 0.25%. As for `O=C(Nc1nc2cc(Cl)c(Cl)cc2[nH]1)c1ccccc1` [BZD67], the “% Ovicidal activity” value in test [1] (50 µM) was 03.33 ± 2.51%. On the same count and under the same terms, next, `COc1ccc(C(=O)Nc2nc3cc(Cl)c(Cl)cc3[nH]2)cc1` [BZD70]: 02.75 ± 1.16%. As to `COC(=O)Nc1nc2ccc([S+]([O-])c3ccccc3)cc2[nH]1` (centres unmarked) [OXF, oxfendazole, reference compound], the killing at 5 µM in test [1] (Fasciola hepatica, 5 µM, read-out: % Ovicidal activity susceptible isolate) is greater than 98%. The “% Ovicidal activity resistant isolate” value in test [2] (5 µM, mean ± SEM) was 3% and 03.41 ± 02.08%. For the same compound, the “Ovicidal activity on the resistant isolate” value in test [2] (10 µM as printed) is listed as 3.5%.

Values taken from article PMC10993450, “New benzimidazole derivative compounds with in vitro fasciolicidal properties” (Parasites & Vectors, 2024).
